The source of these data is ChEMBL document CHEMBL2331460, “Glycosidic carbonic anhydrase IX inhibitors: a sweet approach against cancer” (Bioorg Med Chem, 2013).

pKi: −log10 of the molar value.

For one assay, the target named is Carbonic anhydrase 9 (Homo sapiens, UniProt Q16790). Description: Inhibition of human carbonic anhydrase 9 preincubated for 15 mins by CO2 hydration stopped-flow assay.
The species named for assay [1] is Homo sapiens. In words: Selectivity ratio of Ki for human carbonic anhydrase 1 to Ki for human carbonic anhydrase 9.
Assay [2] is filed under the species Homo sapiens. Description: Selectivity ratio of Ki for human carbonic anhydrase 2 to Ki for human carbonic anhydrase 9.
The target of the next assay is Carbonic anhydrase 2 (Homo sapiens, UniProt P00918). In words: Inhibition of human carbonic anhydrase 2 preincubated for 15 mins by CO2 hydration stopped-flow assay.

On to `CC(=O)OC[C@H]1O[C@H](NS(N)(=O)=O)C=C[C@@H]1OC(C)=O`, for which the pKi – broadly, the Ki on a negative log10 scale, so that one unit is a factor of ten – on Carbonic anhydrase 9 was 8.05.

Consider `CC(=O)OC[C@H]1O[C@@H](NS(N)(=O)=O)[C@H](OC(C)=O)[C@@H](OC(C)=O)[C@H]1OC(C)=O`, for which the figures for the Ratio Ki in the assay filed under Homo sapiens [1] and in the assay filed under Homo sapiens [2] were 480 and less than 17, respectively. This molecule also showed a pKi on Carbonic anhydrase 9 of 8.30.

`C[C@@H]1O[C@@H](NS(N)(=O)=O)[C@@H](O)[C@H](O)[C@H]1O`: the pKi at Carbonic anhydrase 9 was 6.05. The Ratio Ki in the assay listed under Homo sapiens [2] is 7.

The molecule `NS(=O)(=O)OC[C@H]1O[C@H](OC[C@H]2[C@H](O)[C@@H](O)[C@H](O)O[C@@H]2CO)[C@H](O)[C@@H](O)[C@@H]1O` showed a pKi at Carbonic anhydrase 2 of 7.95.

Regarding `CC(=O)OC[C@H]1O[C@@H](NS(N)(=O)=O)[C@@H](OC(C)=O)[C@@H](OC(C)=O)[C@@H]1OC(C)=O`, the Ratio Ki in the assay filed under Homo sapiens [1] was 480; in the assay filed under Homo sapiens [2] it was less than 17.

Consider `CC(=O)OC[C@H]1O[C@@H](NS(N)(=O)=O)[C@H](OC(C)=O)[C@@H](OC(C)=O)[C@@H]1OC(C)=O`, for which the Ratio Ki in the assay listed under Homo sapiens [1] is 480; in the assay listed under Homo sapiens [2] it was less than 17. On Carbonic anhydrase 9, the pKi is 8.30.
